In PMC6155837, “Design, Synthesis, and Biological Evaluation of a New Series of Biphenyl/Bibenzyl Derivatives Functioning as Dual Inhibitors of Acetylcholinesterase and Butyrylcholinesterase” (Molecules : A Journal of Synthetic Chemistry and Natural …, 2017):
Read-outs that look alike come from different tables or passages of the source.

What was measured:
BuChE (from human serum) = target: T1, BuChE (from human serum) (Homo sapiens, UniProt P06276); assay: biochemical
T1 construct: human BuChE purified by human serum; from tissue; host or cells: human serum
T1 sequence (P06276 29-602): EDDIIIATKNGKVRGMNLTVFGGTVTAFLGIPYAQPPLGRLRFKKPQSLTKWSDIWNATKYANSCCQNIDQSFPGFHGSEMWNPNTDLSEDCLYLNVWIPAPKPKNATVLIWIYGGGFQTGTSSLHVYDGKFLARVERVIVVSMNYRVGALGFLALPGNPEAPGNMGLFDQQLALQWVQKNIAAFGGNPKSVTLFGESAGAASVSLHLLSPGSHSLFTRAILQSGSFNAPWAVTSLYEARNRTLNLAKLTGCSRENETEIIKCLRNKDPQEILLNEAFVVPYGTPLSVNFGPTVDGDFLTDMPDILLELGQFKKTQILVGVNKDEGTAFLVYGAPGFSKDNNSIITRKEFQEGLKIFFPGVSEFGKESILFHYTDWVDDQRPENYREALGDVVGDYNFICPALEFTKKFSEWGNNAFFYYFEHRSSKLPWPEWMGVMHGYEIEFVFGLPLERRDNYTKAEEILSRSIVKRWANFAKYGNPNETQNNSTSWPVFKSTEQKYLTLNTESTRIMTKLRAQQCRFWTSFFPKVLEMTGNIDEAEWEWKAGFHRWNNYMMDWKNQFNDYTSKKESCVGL
Description: (§1) All of the assay of acetylcholinesterase (AChE) and butyrylcholinesterase (BuChE) were performed according to the method described by Ellman et al. using the rat AChE purified from the rat brain and human BuChE purified by human serum. In an enzymatic reaction medium contained different concentration of tested compounds and AChE suspended in the phosphate buffer solution at pH 7.2. After 30 min at room temperature, acetylthiocholine iodide and 5.5′-dithiobis-2-nitrobenzoic acid (DNTB) were added and the reaction mixture incubated at 37 °C for 60 min. […] The parallel control experiment was carried without tested compounds in the reaction mixture. For BuChE inhibitory assay, the procedure described above was followed except for the use of enzyme and substrate, instead of which butyrylcholinesterase and butyrylthiocholine chloride were used, respectively. Assays were done with a blank containing all compounds except AChE or BuChE in order to account for nonenzymatic reactions. Each inhibitory test was conducted in triplicate. […] Each concentration was assayed in triplicate and data were expressed as the mean ± SEM.

AChE (from rat brain) = target: T2, AChE (from rat brain) (Rattus norvegicus, UniProt P37136); assay: biochemical; assay type: biochemical
T2 construct: rat AChE purified from the rat brain; from tissue; host or cells: rat brain
T2 sequence (P37136 32-614): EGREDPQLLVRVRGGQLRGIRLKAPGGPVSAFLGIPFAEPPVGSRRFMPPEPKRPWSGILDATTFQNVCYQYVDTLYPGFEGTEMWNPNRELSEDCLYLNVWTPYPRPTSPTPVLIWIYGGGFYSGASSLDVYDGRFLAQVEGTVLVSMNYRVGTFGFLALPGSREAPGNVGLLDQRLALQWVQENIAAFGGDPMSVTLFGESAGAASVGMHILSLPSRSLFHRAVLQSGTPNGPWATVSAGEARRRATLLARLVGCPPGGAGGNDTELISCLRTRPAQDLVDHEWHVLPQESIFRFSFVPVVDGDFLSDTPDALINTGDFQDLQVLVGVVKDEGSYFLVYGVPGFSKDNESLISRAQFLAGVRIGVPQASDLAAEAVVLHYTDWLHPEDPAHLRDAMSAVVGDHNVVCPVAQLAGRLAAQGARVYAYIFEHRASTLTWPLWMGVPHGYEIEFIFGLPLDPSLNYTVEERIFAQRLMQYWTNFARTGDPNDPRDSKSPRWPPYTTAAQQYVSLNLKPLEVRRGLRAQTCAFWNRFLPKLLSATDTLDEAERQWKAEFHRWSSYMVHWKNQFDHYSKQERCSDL
Description: as §1

[1] = BuChE from human serum, means ± SEM of three experiments, read-out: IC50 µM ± SEM BuChE
[2] = AChE from rat brain, footnote d: inactive up to 100 µM/L, read-out: IC50 µM ± SEM AChE
[3] = AChE from rat brain, means ± SEM of three experiments, read-out: IC50 µM ± SEM AChE

| Compound | IC50 (BuChE (from human serum)) [µM] | IC50 (AChE (from rat brain)) [µM] | other results |
| --- | --- | --- | --- |
| CN(C)CC(=O)c1ccc(-c2ccc(C(=O)CN(C)C)cc2)cc1 [Compound 12, 1,1′-([1,1′-Biphenyl]-4,4′-diyl)bis(2-(dimethylamino)ethanone)] |  |  | IC50 (BuChE (from human serum); [1]): 91.7 ± 15.7 µM; IC50 (AChE (from rat brain); [2]): > 100 µM |
| O=C(CN1CCOCC1)c1ccc(CCc2ccc(C(=O)CN3CCOCC3)cc2)cc1 [Compound 28] |  |  | IC50 (BuChE (from human serum); [1]): 6.3 ± 1.6 µM; IC50 (AChE (from rat brain); [2]): > 100 µM |
| CN(C)CCC(=O)c1ccc(CCc2ccc(C(=O)CCN(C)C)cc2)cc1 [Compound 29, 1,1′-(Ethane-1,2-diylbis(4,1-phenylene))bis(3-(dimethylamino)propan-1-one)] | 1.21 ± 0.22 | 2.62 ± 0.63 |  |
| O=C(CCN1CCCC1)c1ccc(-c2ccc(C(=O)CCN3CCCC3)cc2)cc1 [Compound 18, 4,4′-Bis(β-pyrrolidin-propinoyl)-biphenyl] | 1.16 ± 0.09 | 0.33 ± 0.06 |  |
| O=C(CCCN1CCCCC1)c1ccc(CCc2ccc(C(=O)CCCN3CCCCC3)cc2)cc1 [Compound 32, 1,1′-(Ethane-1,2-diylbis(4,1-phenylene))bis(4-(piperidin-1-yl)butan-1-one)] | 19.2 ± 4.78 | 3.67 ± 0.92 |  |
| CN1CCN(CC(=O)c2ccc(CCc3ccc(C(=O)CN4CCN(C)CC4)cc3)cc2)CC1 [Compound 27, 1,1′-(Ethane-1,2-diylbis(4,1-phenylene))bis(2-(4-methylpiperazin-1-yl)ethanone)] | 66.5 ± 17 | 74.1 ± 11.5 |  |
| O=C(CCCCN1CCCCC1)c1ccc(CCc2ccc(C(=O)CCCCN3CCCCC3)cc2)cc1 [Compound 33, 1,1′-(Ethane-1,2-diylbis(4,1-phenylene))bis(5-(piperidin-1-yl)pentan-1-one)] | 1.64 ± 0.27 | 0.19 ± 0.08 |  |
| CN(C)CCC(=O)c1ccc(-c2ccc(C(=O)CCN(C)C)cc2)cc1 [Compound 1, 4,4′-bi-(β-dimethylamino-propinoyl)-biphenyl] | 0.19 | 0.75 |  |
| O=C(CCN1CCCCC1)c1ccc(-c2ccc(C(=O)CCN3CCCCC3)cc2)cc1 [Compound 19] | 1.25 ± 0.15 | 0.096 ± 0.006 | fold more potent than the lead compound (1) for inhibiting AChE (AChE (from rat brain); relative to compound 1): eight |
| OC(CCN1CCCCC1)c1ccc(CCc2ccc(C(O)CCN3CCCCC3)cc2)cc1 (centres unmarked) [Compound 36, 1,1′-(Ethane-1,2-diylbis(4,1-phenylene))bis(3-(piperidin-1-yl)propan-1-ol)] |  |  | IC50 (BuChE (from human serum); [1]): 25.9 ± 6.81 µM; IC50 (AChE (from rat brain); [3]): 74.9 ± 35.6 µM |
| OC(CCN1CCCCC1)c1ccc(-c2ccc(C(O)CCN3CCCCC3)cc2)cc1 (centres unmarked) [Compound 34, 1,1′-([1,1′-Biphenyl]-4,4′-diyl)bis(3-(piperidin-1-yl)propan-1-ol)] | 13.8 ± 1.59 | 31.7 ± 10.2 |  |
| O=C(CCN1CCC1)c1ccc(-c2ccc(C(=O)CCN3CCC3)cc2)cc1 [Compound 17, 4,4′-Bis(β-azetidin-propinoyl)-biphenyl] | 2.39 ± 0.75 | 0.71 ± 0.06 |  |
| O=C(CN1CCCCC1)c1ccc(-c2ccc(C(=O)CN3CCCCC3)cc2)cc1 [Compound 13, 1,1′-([1,1′-Biphenyl]-4,4′-diyl)bis(2-(piperidin-1-yl)ethanone)] | 71.7 ± 3.01 |  | IC50 (AChE (from rat brain); [2]): > 100 µM |
| O=C(CN1CCCCC1)c1ccc(CCc2ccc(C(=O)CN3CCCCC3)cc2)cc1 [Compound 26, 1,1′-(Ethane-1,2-diylbis(4,1-phenylene))bis(2-(piperidin-1-yl)ethanone)] | 20.7 ± 5.44 |  | IC50 (AChE (from rat brain); [3]): 74.5 ± 8.5 µM |
| O=C(CCN1CCOCC1)c1ccc(CCc2ccc(C(=O)CCN3CCOCC3)cc2)cc1 [Compound 31, 1,1′-(Ethane-1,2-diylbis(4,1-phenylene))bis(3-morpholinopropan-1-one)] | 6.38 ± 1.26 | 3.53 ± 0.79 |  |
| O=C(CCCN1CCCCC1)c1ccc(-c2ccc(C(=O)CCCN3CCCCC3)cc2)cc1 [Compound 23, 1,1′-([1,1′-Biphenyl]-4,4′-diyl)bis(4-(piperidin-1-yl)butan-1-one)] | 5.9 ± 0.4 | 1.32 ± 0.43 |  |
| O=C(CN1CCOCC1)c1ccc(-c2ccc(C(=O)CN3CCOCC3)cc2)cc1 [Compound 14, 1,1′-([1,1′-Biphenyl]-4,4′-diyl)bis(2-morpholinoethanone)] |  | > 100 | IC50 (BuChE (from human serum); [1]): 1.44 ± 0.23 µM |
| CCN(CC)CCC(=O)c1ccc(-c2ccc(C(=O)CCN(CC)CC)cc2)cc1 [Compound 15, 4,4′-Bis(β-diethylamino-propinoyl)-biphenyl] | 0.74 ± 0.09 | 1.18 ± 0.29 |  |
| CN(C)CC(=O)c1ccc(CCc2ccc(C(=O)CN(C)C)cc2)cc1 [Compound 25, 1,1′-(Ethane-1,2-diylbis(4,1-phenylene))bis(2-(dimethylamino)ethanone)] | 9.11 ± 2.55 | 62.3 ± 14.5 |  |
| OC(CCN1CCOCC1)c1ccc(-c2ccc(C(O)CCN3CCOCC3)cc2)cc1 (centres unmarked) [Compound 35, 1,1′-([1,1′-Biphenyl]-4,4′-diyl)bis(3-morpholinopropan-1-ol)] |  |  | IC50 (BuChE (from human serum); BuChE from human serum, footnote d: inactive up to 100 µM/L, read-out: IC50 µM ± SEM BuChE): > 100 µM; IC50 (AChE (from rat brain); [2]): > 100 µM |
| O=C(CCN1CCOCC1)c1ccc(-c2ccc(C(=O)CCN3CCOCC3)cc2)cc1 [Compound 20] | 0.72 ± 0.1 | 0.97 ± 0.08 |  |
| O=C(CCN1CCCCCC1)c1ccc(-c2ccc(C(=O)CCN3CCCCCC3)cc2)cc1 [Compound 21, 4,4′-Bis(β-azepan-propinoyl)-biphenyl] | 1.94 ± 0.07 | 1.43 ± 0.33 |  |
| O=C(CCCCN1CCCCC1)c1ccc(-c2ccc(C(=O)CCCCN3CCCCC3)cc2)cc1 [Compound 24, 1,1′-([1,1′-Biphenyl]-4,4′-diyl)bis(5-(piperidin-1-yl)pentan-1-one)] | 2.65 ± 0.11 | 0.82 ± 0.16 |  |
| CN1CCN(CCC(=O)c2ccc(-c3ccc(C(=O)CCN4CCN(C)CC4)cc3)cc2)CC1 [Compound 22, 4,4′-Bis(β-4-methylpiperazin-propinoyl)-biphenyl] | 13.8 ± 0.81 | 1.61 ± 0.38 |  |
| O=C(CCN1CCCCC1)c1ccc(CCc2ccc(C(=O)CCN3CCCCC3)cc2)cc1 [Compound 30, 1,1′-(Ethane-1,2-diylbis(4,1-phenylene))bis(3-(piperidin-1-yl)propan-1-one)] |  | 0.5 ± 0.06 | IC50 (BuChE (from human serum); [1]): 3.14 ± 0.24 µM |
| CCCN(CCC)CCC(=O)c1ccc(-c2ccc(C(=O)CCN(CCC)CCC)cc2)cc1 [Compound 16, 4,4′-Bis(β-dipropylamino-propinoyl)-biphenyl] | 2.83 ± 0.5 | 0.88 ± 0.17 |  |
